The test system of data set [1] is red blood cells. The conditions noted are these: in vivo, po.
Procedure: In this test, paprika carotenoids rich in carotenoids having 3,6-epoxy end groups or 5-membered ring end groups were orally administered to an adult, and cucurbitaxanthin A, capsanthin, capsorubin, and capsanthin 3,6-epoxide were evaluated for their ability to migrate into red blood cells. A specific testing method was as described below.
Initially, 15 g of a paprika pigment emulsified preparation (PapriX; total amount of carotenoids: 10 mg/g) from Glico Nutrition Co., Ltd., 30 g of dextrin, 70 g of sugar, and 3 g of citric acid were dissolved in 1 L of water to prepare a test beverage containing the paprika carotenoids. The paprika pigment emulsified preparation contained 0.053 mass % of cucurbitaxanthin A, 0.40 mass % of capsanthin, 0.021 mass % of capsorubin, and 0.034 mass % of capsanthin 3,6-epoxide, and the test beverage contained 0.00079 mass % of cucurbitaxanthin A, 0.0060 mass % of capsanthin, 0.00031 mass % of capsorubin, and 0.00051 mass % of capsanthin 3,6-epoxide.
Before the beginning of the ingestion and after 4 weeks from the ingestion, blood was collected to obtain blood samples. Red blood cells were separated from the obtained blood samples, and the carotenoids (capsanthin 3,6-epoxide, cucurbitaxanthin A, capsanthin, and capsorubin) present in red blood cells were quantified by HPLC.
Data set [2] deals with red blood cells. The conditions noted are these: cited from earlier work.
Setting [3] is: 30 healthy males and females, oral administration for 12 weeks.

Several values for one entry are separate records, joined by “and”; a condition that tells them apart may be missing. Identical values can stand only once.

Turning to `CC(/C=C/C=C(C)/C=C/C(=O)[C@]1(C)C[C@@H](O)CC1(C)C)=C\C=C\C=C(C)\C=C\C=C(C)\C=C\C(=O)[C@]1(C)C[C@@H](O)CC1(C)C` [capsorubin], the “ability to migrate into red blood cells (migration ratio into red blood cells)” value (“ability … (migration ratio into red blood cells)” below) with red blood cells [1] was “little migration into red blood cells”. In the case of `CC1=C(/C=C/C(C)=C/C=C/C(C)=C/C=C/C=C(C)/C=C/C=C(C)/C=C/[C@@]23O[C@@H](CC2(C)C)C[C@@]3(C)O)C(C)(C)C[C@H](O)C1` [cucurbitaxanthin A, (3S,3′R,5R,6R)-3,6-epoxy-5,6-dihydro-β,β-carotene-3′,5-diol], in the data set on red blood cells [1], the “ability … (migration ratio into red blood cells)” value was “markedly high ability to migrate into red blood cells”. Take `CC(/C=C/C=C(C)/C=C/C(=O)[C@]1(C)C[C@@H](O)CC1(C)C)=C\C=C\C=C(C)\C=C\C=C(C)\C=C\[C@@]12O[C@@H](CC1(C)C)C[C@@]2(C)O` [capsanthin 3,6-epoxide]: in the data set with red blood cells [1], the “ability … (migration ratio into red blood cells)” value is on record as “little migration into red blood cells”.

Take `CC1=C(/C=C/C(C)=C/C=C/C(C)=C/C=C/C=C(C)/C=C/C=C(C)/C=C/C2=C(C)C(=O)[C@@H](O)CC2(C)C)C(C)(C)C[C@H](O)C1=O` [astaxanthin]: in the data set with red blood cells [2] (setting [3]), the “astaxanthin in the red blood cells” value is “an increase in astaxanthin” and the “lipid peroxides in the red blood cells” value was “a decrease in lipid peroxides”. Also, the “migration ratio into red blood cells” value in the data set on red blood cells [2] (day 84 after the ingestion, calculated from literature disclosure) was 0.0089% and 0.0057%. For `CC1=C(/C=C/C(C)=C/C=C/C(C)=C/C=C/C=C(C)/C=C/C=C(C)/C=C/C(=O)[C@]2(C)C[C@@H](O)CC2(C)C)C(C)(C)C[C@H](O)C1` [capsanthin], the “ability … (migration ratio into red blood cells)” value in the data set with red blood cells [1] is “little migration into red blood cells”.

Source of the values: patent publication US20170281587A1, “ERYTHROCYTE FUNCTION IMPROVING AGENT” (Glico Nutrition Co., Ltd., priority 2014, published 2017).
